Tests used:
GL261 cells [1] = experiment: Percent viability of GL261 cells treated with TMZ or iCHEK1/2; assay type: cell-based, mouse
GL261 cells [2] = experiment: Western blot of DNA damage in GL261 cells; assay type: cell-based, mouse; settings: 8 nM, 48 h of treatment, compared to TMZ or untreated GL261 cells
GL261 cells [3] = experiment: Expression of MHC-I and PDL1 in GL261 cells; assay type: cell-based, mouse; settings: 8 nM, 3 cycles (48 h/cycle), compared to TMZ or untreated
[4] = test system: GL261 intracranial gliomas; experiment: PD1+ T cells in brain and spleen of GL261 intracranial tumor bearing mice by flow cytometry; assay type: in vivo, C57BL/6 mice; settings: 10 mg/kg i.p. on 7th and 9th day, sacrificed on 13th day

`Cn1nnc2c(C(N)=O)ncn2c1=O` [TMZ, temozolomide] was tested, and the “concentration leading to a decrease in viability of glioma cells” value (GL261 cells [1]; treatment for 72 h) was 500 µM.
`COc1cccc(OCCCN)c1-c1cc(Nc2cnc(C#N)cn2)n[nH]1` [iCHEK1/2, Prexasertib] was tested, and the “concentration at which viability of the GL261 cells started to be affected” value (GL261 cells [1]) was “less than 0.08 nM”, the “DNA damage signal (western blot)” value (GL261 cells [2]) was “intense signal of DNA damage” and the “expression of MHC-I (both MHC class and PDL1)” value (GL261 cells [3]) was “increased expression of MHC-I”. The “activated T-cells pool in the peripheral compartment (spleen)” value [4] was “no significant difference” and the “percentage of PD1+ T cells in the brain” value ([4]; compared to TMZ or vehicle) was “decrease in the percentage of PD1+ T cells”.
